Drawing on ChEMBL document CHEMBL1153810, “Sesquiterpene lactones from the root tubers of Lindera aggregata” (J Nat Prod, 2009), this text covers EC50 for four molecules.

In this assay the test system is HepG2. In words: Hepatoprotective activity in human HepG2 cells assessed as inhibition of H2O2- induced oxidative damage after 3 hrs by leucocrstal violet dye treated 1 hr before H2O2 challenge. The class given is functional, cell-based.
For the molecule `C=C1CC=C[C@]2(C)C[C@]3(O)OC(=O)C(C)C3=C[C@@H]12` (some centres undefined) [HYDROXYLINDESTENOLIDE], the EC50 was determined as 42.4 µM.

Consider `CC1=CC[C@@H](O)[C@]2(C)CC3(O)OC(=O)C(C)=C3[C@H](O)[C@@H]12` (some centres undefined) [LINDERAGALACTONE E], for which the EC50 is 67.5 µM.

In the case of `C/C1=C\CCC2=C[C@@H](OC2=O)c2c(C)coc2C1` [LINDERALACTONE], the EC50 is 98 µM.

Regarding `C/C1=C\CC[C@]23O[C@H]2[C@@H](OC3=O)c2c(C)coc2C1` [LINDERANE], the EC50 worked out at 167 µM.

The EC50 is the concentration needed to bring the measured effect to its halfway point.
